Experimental data taken from patent US20160129089A1, “COMBINATION THERAPY” (ANTISENSE THERAPEUTICS LTD, priority 2013, published 2016).
e = 2'-O-(2-methoxyethyl) (MOE); d = 2'-deoxy (DNA)

Experiments:
liver GHr RNA = assay: Monotherapy and combination mouse study: relative liver GHR RNA; format: in vivo, mice; details: compared to saline control; for reduction of liver GHr RNA: week 3
Text: (§1) The GHr and IGF-I RNA data were statistically analysed using one-way ANOVA followed by Dunnetts test when comparing treated to saline control. The sIGF-I data were statistically analyzed using one-way […] comparisons.

liver IGF-I RNA = assay: Monotherapy and combination mouse study: relative liver IGF-I RNA; format: in vivo, mice; details: compared to saline control; for reduction of liver IGF-I RNA: week 3, p=0.05
Text: as §1

serum IGF-I = assay: Monotherapy and combination mouse study: serum IGF-I; format: in vivo, mice; details: for reduction of sIGF-I: week 1
Text: as §1

[1] = system: human growth hormone receptor mRNA; assay: Inhibition of human growth hormone receptor mRNA levels by antisense oligonucleotides, quantitative real-time PCR, MCF7 cells; format: cell-based; design: concentration or dose not given beside the values; details: averages from three experiments
Experimental: “Target site” indicates the first (5′-most) nucleotide number on the particular target sequence to which the oligonucleotide binds. “% Inhib” indicates the inhibitory effect on hGHR mRNA levels by quantitative real-time PCR. Data are averages from three experiments in which MCF7 cells were treated with the antisense oligonucleotides.
All oligonucelotides in Table 1 are chimeric oligonucleotides (“gapmers”), 20 nucleotides in length, composed of a central “gap” region consisting of ten 2′-deoxynucleotides, which is flanked on both sides (5′ and 3′ directions) by five-nucleotide “wings”. The wings are composed of 2′-methoxyethyl (2′-MOE) nucleotides. The internucleoside (backbone) linkages are phosphorothioate (P═S) throughout the oligonucleotide. All uracils are 5-methyluracils (^MeU). Typically, the oligonucleotide is synthesized using 2-methoxyethyl modified thymidines not 5-methyluracils. All pyrimidines are C5 methylated (i.e., U, T, C are C5 methylated).

“Somavert: current medicinal treatment for acromegaly, used as monotherapy or with a Somatostatin agonist” was tested, and the “reduction of liver GHr RNA” value (liver GHr RNA; Somavert 20 mg/kg, every other day, p=0.01) was 79.9%, the “increase of liver GHr RNA” value (liver GHr RNA; Somavert lower dose 5 mg/kg, every other day, p=0.05) was 23% and the “reduction of liver IGF-I RNA” value (liver IGF-I RNA; Somavert 20 mg/kg, every other day) was 43.2%. For the same compound, the “effect on liver IGF-I RNA” value (liver IGF-I RNA; Somavert lower dose 5 mg/kg, every other day) was “no effect” and the “increase of sIGF-I levels” value (serum IGF-I; higher Somavert dose, 1 week, patent suspects an issue with the assay) was over 2 fold.
In the case of `C[C@@H](O)[C@@H]1NC(=O)[C@H](CCCCN)NC(=O)[C@@H](Cc2c[nH]c3ccccc23)NC(=O)[C@H](Cc2ccccc2)NC(=O)[C@@H](NC(=O)[C@H](N)Cc2ccccc2)CSSC[C@@H](C(=O)N[C@H](CO)[C@@H](C)O)NC1=O` [Octreotide, reference compound], the “reduction of liver GHr RNA” value (liver GHr RNA; octreotide 1.25 mg/kg twice daily, p=0.001) is reported as 82.9%, the “reduction of liver IGF-I RNA” value (liver IGF-I RNA; octreotide 1.25 mg/kg twice daily) is reported as 47.7% and the “reduction of sIGF-I” value (serum IGF-I; octreotide 1.25 mg/kg twice daily, compared to baseline control levels, p<0.04) is reported as 15%. The “reduction of sIGF-I” value (serum IGF-I; octreotide 1.25 mg/kg twice daily, p=0.012) was 25.1% and the “reduction of serum IGF-I” value (serum IGF-I; octreotide 1.25 mg/kg twice daily, week 3, compared to saline control, p=0.03) was 25.2%.
In the case of “227502 (antisense GATTGAGGTATTTAGCTATT; sugars from the 5' end e5 d10 e5, all phosphorothioate, methylation of C not given here) [compound 227502]”, the “% INHIB (inhibitory effect on hGHR mRNA levels)” value (shortened to “% INHIB”) [1] is reported as 56%.
In the case of “227488 (antisense AGTTGGTCTGTGCTCACATA; sugars from the 5' end e5 d10 e5, all phosphorothioate, methylation of C not given here) [compound 227488]”, the “% INHIB” value [1] is reported as 86%.
In the case of “272352 (antisense CCAAAATGACATTCTGAGAC; sugars from the 5' end e5 d10 e5, all phosphorothioate, methylation of C not given here) [compound 272352]”, the “% INHIB” value [1] is reported as 77%.
In the case of “272347 (antisense TCTACACTGATGATACTTTA; sugars from the 5' end e5 d10 e5, all phosphorothioate, methylation of C not given here) [compound 272347]”, the “% INHIB” value [1] is reported as 62%.
In the case of “272310 (antisense TTTCATCCACTGTACCACCA; sugars from the 5' end e5 d10 e5, all phosphorothioate, methylation of C not given here) [compound 272310]”, the “% INHIB” value [1] is reported as 76%.
